According to article PMC4658230 (Toxicology, 2015):
Like-named read-outs stand apart in the source and are kept apart here.

Experiments:
[1] = target: T1, erCYP2E1 (Rattus norvegicus, UniProt P05182); test: Steady-state kinetics of substrate oxidation by rat liver microsomes; settings: for Preferred Mechanism: rat liver microsomes, best of six steady-state mechanisms (DynaFit)
[2] = target: T1, erCYP2E1; settings: equal CYP2E1 levels in each compartment assumed
[3] = target: T2, mtCYP2E1 (Rattus norvegicus, UniProt P05182); settings: mitochondria 2 mg/mL, methanol only
T2 sequence (P05182 2-493 limits assumed): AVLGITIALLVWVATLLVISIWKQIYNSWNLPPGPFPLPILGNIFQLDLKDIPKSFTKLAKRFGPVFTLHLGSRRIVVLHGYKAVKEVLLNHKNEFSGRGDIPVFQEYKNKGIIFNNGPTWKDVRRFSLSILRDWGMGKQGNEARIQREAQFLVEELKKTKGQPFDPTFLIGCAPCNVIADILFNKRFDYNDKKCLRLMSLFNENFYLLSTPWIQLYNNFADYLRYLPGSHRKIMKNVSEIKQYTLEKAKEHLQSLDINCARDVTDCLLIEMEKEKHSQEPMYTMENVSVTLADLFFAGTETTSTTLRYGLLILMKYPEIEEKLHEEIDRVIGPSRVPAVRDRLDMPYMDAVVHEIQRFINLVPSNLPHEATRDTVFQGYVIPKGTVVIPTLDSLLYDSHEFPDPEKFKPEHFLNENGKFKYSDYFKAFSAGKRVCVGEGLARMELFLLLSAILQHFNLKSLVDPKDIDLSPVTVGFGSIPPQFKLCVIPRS

[4] = target: T1, erCYP2E1; settings: microsomes 0.5 mg/mL, methanol only
[5] = target: T2, mtCYP2E1; settings: for Preferred Mechanism: rat liver mitochondria, best of six steady-state mechanisms (DynaFit)
[6] = target: T2, mtCYP2E1; settings: low concentration (10 μM); equal CYP2E1 levels in each compartment assumed
[7] = more recent studies of industrial workers; ref Bonanni et al. 2015; cited from earlier work
[8] = rat liver microsomes 0.5 mg/mL, 1 mM NADPH, 37°C, pH 7.4

T1 sequence (P05182 whole entry): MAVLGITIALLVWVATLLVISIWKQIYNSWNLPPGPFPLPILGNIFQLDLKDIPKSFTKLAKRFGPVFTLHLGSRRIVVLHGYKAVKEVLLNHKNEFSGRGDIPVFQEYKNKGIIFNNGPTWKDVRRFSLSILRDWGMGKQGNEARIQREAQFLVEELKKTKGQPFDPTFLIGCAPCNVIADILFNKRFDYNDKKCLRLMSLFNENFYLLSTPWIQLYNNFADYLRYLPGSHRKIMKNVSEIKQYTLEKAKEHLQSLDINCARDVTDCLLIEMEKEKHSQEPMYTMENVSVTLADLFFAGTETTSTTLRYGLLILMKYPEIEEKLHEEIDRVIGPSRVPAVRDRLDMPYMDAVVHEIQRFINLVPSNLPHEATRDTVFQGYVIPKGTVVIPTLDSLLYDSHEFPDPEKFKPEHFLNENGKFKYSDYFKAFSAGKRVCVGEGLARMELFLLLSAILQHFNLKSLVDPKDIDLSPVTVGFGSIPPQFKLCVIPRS

| SMILES | binding of second molecule weaker than first binding event ([1]; erCYP2E1, rat liver microsomes) | rate of turnover of ternary complex higher than binary enzyme-substrate complex ([1]; erCYP2E1, rat liver microsomes) | Kss [1, 8] | kcat [1, 8] | kcat2 [1, 8] | Preferred Mechanism [1] | percent of total metabolism through erCYP2E1 ([2]; high concentration (500 μM)) | percent of total metabolism through erCYP2E1 ([2]; low concentration (10 μM)) | control (uninhibited) rate of substrate oxidation by mtCYP2E1 ([3]; 50 μM substrate) | control (uninhibited) rate of substrate oxidation by mtCYP2E1 ([3]; 500 μM substrate) | control (uninhibited) rate of substrate oxidation by erCYP2E1 ([4]; 50 μM substrate) | control (uninhibited) rate of substrate oxidation by erCYP2E1 ([4]; 500 μM substrate) | Preferred Mechanism [5] | turnover rate of mtCYP2E1 lower than microsomal enzyme ([5]; versus erCYP2E1 after first substrate binding event) | percent of total metabolism through mtCYP2E1 [6] | styrene plasma levels [7] | kcat ([5]; rat liver mitochondria 2 mg/mL, 1 mM NADPH, 37°C, pH 7.4) | turnover rate of mtCYP2E1 lower than erCYP2E1 ([5]; mtCYP2E1 versus erCYP2E1) |
| --- | --- | --- | --- | --- | --- | --- | --- | --- | --- | --- | --- | --- | --- | --- | --- | --- | --- | --- |
| Nc1ccccc1 [aniline] | 25 fold | two-fold | 54 (21 to 550) μM | 500 (230 to 770) pmol/min/pmol CYP2E1 | 1000 (970 to 1300) pmol/min/pmol CYP2E1 | Two-Site Model, ES and ESS active | 95% | approximately 94% | 28 pmol/min/pmol CYP2E1 | 58 pmol/min/pmol CYP2E1 | 260 pmol/min/mg | 1000 pmol/min/mg | One-Site Model (Michaelis-Menten) | 10 fold | about 6% | – | – | – |
| C=Cc1ccccc1 [styrene] | – | – | – | 630 (580 to 690) pmol/min/pmol CYP2E1 | – | – | – | – | 54 pmol/min/pmol CYP2E1 | 76 pmol/min/pmol CYP2E1 | 310 pmol/min/mg | 390 pmol/min/mg | – | – | – | 0.06 µM | 100 (96 to 110) pmol/min/pmol CYP2E1 | – |
| O=[N+]([O-])c1ccc(O)cc1 [4-nitrophenol, reference compound] | – | – | 2000 (1600 to 2600) μM | – | – | Two-Site Model, ES active only | – | – | 26 pmol/min/pmol CYP2E1 | 60 pmol/min/pmol CYP2E1 | 290 pmol/min/pmol CYP2E1 | 1080 pmol/min/pmol CYP2E1 | One-Site Model (Michaelis-Menten) | – | – | – | – | nine-fold |
